Each structure is given as a SMILES string.

Assay [1] concerns the target T1, vitamin D receptor (VDR) (Homo sapiens, UniProt P11473).
T1 construct: full-length
T1 sequence (P11473 1-427): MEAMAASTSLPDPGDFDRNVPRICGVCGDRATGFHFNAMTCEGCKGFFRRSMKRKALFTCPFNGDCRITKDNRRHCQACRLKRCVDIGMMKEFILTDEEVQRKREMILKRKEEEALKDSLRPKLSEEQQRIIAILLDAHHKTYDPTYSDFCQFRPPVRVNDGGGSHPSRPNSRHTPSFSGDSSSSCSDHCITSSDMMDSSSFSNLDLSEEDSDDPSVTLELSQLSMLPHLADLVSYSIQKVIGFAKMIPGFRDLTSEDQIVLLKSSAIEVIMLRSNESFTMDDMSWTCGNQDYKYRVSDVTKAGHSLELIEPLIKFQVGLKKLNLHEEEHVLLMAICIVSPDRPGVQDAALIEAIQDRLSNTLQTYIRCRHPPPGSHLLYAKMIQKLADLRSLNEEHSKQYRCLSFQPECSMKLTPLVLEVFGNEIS
The assay is described as follows: fluorescence polarization competition with Fluormone VDR Red tracer (PolarScreen). Format: binding. For orientation: In fluorescence polarisation assays a small probe gives low polarisation when free and higher when bound to something large.

Assay [2] concerns the target T1, vitamin D receptor (VDR). The assay is described as follows: fluorescence polarization competition with Fluormone VDR Red tracer (PolarScreen); binding only evident above […].

A word on the IC50: it is the point on the concentration scale where inhibition reaches its midpoint. Compound `C=C1CC[C@H](O)C/C1=C/C=C1\CCC[C@]2(C)[C@@H]([C@H](C)CCCC(C)(C)O)CC[C@@H]12` [25(OH)D3] had an IC50 in assay [1] of 56.2 nM. That is a double-digit nanomolar value. As to `C=C1/C(=C\C=C2/CCC[C@]3(C)[C@@H]([C@H](C)CCC(=NOC)C(C)(C)C)CC[C@@H]23)C[C@@H](O)C[C@@H]1O` [VD1-6], the IC50 in assay [2] is 438 nM. This counts as sub-micromolar.

Source of the values: publication PMC9312876, “Therapeutic Potential of a Novel Vitamin D3 Oxime Analogue, VD1-6, with CYP24A1 Enzyme Inhibitory Activity and Negligible Vitamin D Receptor Binding” (Biomolecules, 2022).
